How the values were obtained:
[1] = target: T1, Histone-lysine N-methyltransferase EZH2 (Homo sapiens, UniProt Q15910); test: Inhibition of wild type EZH2 (unknown origin)
Target sequence in this assay (Q15910 whole entry): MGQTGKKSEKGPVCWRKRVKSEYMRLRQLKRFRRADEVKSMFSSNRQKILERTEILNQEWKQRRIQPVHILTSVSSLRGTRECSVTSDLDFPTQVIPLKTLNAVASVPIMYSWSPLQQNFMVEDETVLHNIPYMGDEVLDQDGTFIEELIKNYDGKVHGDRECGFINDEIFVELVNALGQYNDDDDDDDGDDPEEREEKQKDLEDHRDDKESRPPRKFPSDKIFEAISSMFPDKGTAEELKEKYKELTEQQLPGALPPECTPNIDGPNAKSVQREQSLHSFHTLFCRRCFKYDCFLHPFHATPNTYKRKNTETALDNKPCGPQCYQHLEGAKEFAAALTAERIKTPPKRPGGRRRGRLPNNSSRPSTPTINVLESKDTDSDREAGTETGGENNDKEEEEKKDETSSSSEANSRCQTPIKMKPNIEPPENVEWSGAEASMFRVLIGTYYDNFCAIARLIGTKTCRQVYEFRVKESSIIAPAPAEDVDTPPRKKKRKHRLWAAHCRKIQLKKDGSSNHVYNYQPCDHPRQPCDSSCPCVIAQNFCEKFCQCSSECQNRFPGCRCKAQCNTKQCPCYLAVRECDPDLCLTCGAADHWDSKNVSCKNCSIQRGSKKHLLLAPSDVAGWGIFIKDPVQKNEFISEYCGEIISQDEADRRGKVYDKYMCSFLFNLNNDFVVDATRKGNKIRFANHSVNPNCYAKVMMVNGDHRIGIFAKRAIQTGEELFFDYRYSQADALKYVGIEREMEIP

[2] = target: Histone-lysine N-methyltransferase EZH2 (Homo sapiens, UniProt Q15910, Y641N); test: Inhibition of EZH2 Y641N mutant (unknown origin)
[3] = Passive permeability from apical to basolateral side in human Caco2 cells; assay type: ADME, cell-based; conditions: Caco-2, read-out: permeability
[4] = Passive permeability from basolateral to apical side in human Caco2 cells; assay type: ADME, cell-based; conditions: Caco-2, read-out: permeability
[5] = Efflux ratio of passive permeability in human Caco2 cells; assay type: ADME, cell-based; conditions: Caco-2
[6] = target: T1, Histone-lysine N-methyltransferase EZH2; test: Inhibition of EZH2 in human HeLa cells assessed as reduction in H3K27me3 level; assay type: cell-based
Target sequence in this assay (Q15910 whole entry, looked up): as the sequence (Q15910 whole entry) above

[7] = Growth inhibition of human KARPAS422 cells after 4 days by Cell-Titer luminescence assay; assay type: functional; conditions: KARPAS-422, 96 h
[8] = Growth inhibition of human KARPAS422 cells after 7 days by Cell-Titer luminescence assay; assay type: functional; conditions: KARPAS-422, 168 h
[9] = Growth inhibition of human KARPAS422 cells after 10 days by Cell-Titer luminescence assay; assay type: functional; conditions: KARPAS-422, 240 h
[10] = Growth inhibition of human KARPAS422 cells after 14 days by Cell-Titer luminescence assay; assay type: functional; conditions: KARPAS-422, 336 h
[11] = Growth inhibition of human KARPAS422 cells after 17 days by Cell-Titer luminescence assay; assay type: functional; conditions: KARPAS-422, 408 h

Sequence of Histone-lysine N-methyltransferase EZH2 (Homo sapiens, UniProt Q15910, Y641N) (Q15910 whole entry Y641N): as the sequence (Q15910 whole entry) above, with Y641N counted along it

In the case of `CC1(C)CC(NC(=O)c2ccc(Oc3cccc(-c4ccnnc4)c3C#N)c(Cl)c2)CC(C)(C)O1`, the IC50 [1] is reported as 1.5 µM, the IC50 [2] is reported as 66 µM and the Papp A→B [3] is reported as 21.9 ×10⁻⁶ cm/s. For the same compound, the Papp B→A [4] was 24.8 ×10⁻⁶ cm/s and the efflux ratio [5] was 1.1.

`CC1(C)CC(NC(=O)c2ccc(Oc3cccc(-c4cn[nH]c4)c3C#N)c(Cl)c2)CC(C)(C)N1` showed an IC50 [1] of 0.23 µM and an IC50 [2] of 4 µM.

For `COc1ccccc1Oc1ccc(C(=O)NC2CC(C)(C)NC(C)(C)C2)cc1`, the IC50 [1] was 59 µM.

In the case of `CC1(C)CC(NC(=O)c2ccc(C3(c4ccccc4)CC3)cc2)CC(C)(C)N1`, the IC50 [1] is reported as greater than 80 µM.

Work on `Cc1ccccc1Oc1ccc(C(=O)NC2CC(C)(C)NC(C)(C)C2)cc1` yielded an IC50 [1] of 48 µM.

`CC1(C)CC(NC(=O)c2ccc(Oc3ccccc3C(C)(C)C)cc2)CC(C)(C)N1` showed an IC50 [1] of 7.9 µM.

Work on `CC1(C)CC(NC(=O)c2ccc(Nc3ccccc3)cc2)CC(C)(C)N1` yielded an IC50 [1] greater than 80 µM.

Compound `CC1(C)CC(COc2ccc(Oc3cccc(-c4ccncn4)c3C#N)c(Cl)c2)CC(C)(C)N1` has an IC50 [1] of 0.189 µM, an IC50 [2] of 2 µM and a Papp A→B [3] of 0.5 ×10⁻⁶ cm/s. For the same compound, the Papp B→A [4] was 2.1 ×10⁻⁶ cm/s, the efflux ratio [5] was 4.4 and the Activity [6] was greater than 15 µM.

In the case of `CC1(C)CC(NC(=O)c2ccc(Oc3cccc(Cl)c3C#N)c(Cl)c2)CC(C)(C)N1`, the IC50 [1] is reported as 0.14 µM and the IC50 [2] is reported as 2.2 µM.

`C#Cc1ccccc1Oc1ccc(C(=O)NC2CC(C)(C)NC(C)(C)C2)cc1` showed an IC50 [1] of 19 µM.

In the case of `CC1CC(NC(=O)c2ccc(Oc3cccc(-c4ccnnc4)c3C#N)c(Cl)c2)CC(C)(C)N1` (stereo unspecified), the IC50 [1] is reported as 0.871 µM and the IC50 [2] is reported as 10 µM.

For `CC1(C)CC(NC(=O)c2ccc([S+]([O-])c3ccccc3)cc2)CC(C)(C)N1` (stereo unspecified), the IC50 [1] was greater than 80 µM.

In the case of `CC1(C)CC(NC(=O)c2ccc(Oc3ccccc3C#N)c(Br)c2)CC(C)(C)N1`, the IC50 [1] is reported as 0.32 µM.

For `Cc1cc(C(=O)NC2CC(C)(C)NC(C)(C)C2)cc(C)c1Oc1ccccc1C#N`, the IC50 [1] was 51 µM.

`Cc1cccc(Oc2ccc(C(=O)NC3CC(C)(C)NC(C)(C)C3)cc2Cl)c1C#N` showed an IC50 [1] of 0.14 µM and an IC50 [2] of 1.4 µM.

For `CC1(C)CC(NC(=O)c2ccc(S(=O)(=O)c3ccccc3)cc2)CC(C)(C)N1`, the IC50 [1] was greater than 80 µM.

In the case of `CC1(C)CC(NC(=O)c2ccc(Oc3ccccc3C#N)c(C3CC3)c2)CC(C)(C)N1`, the IC50 [1] is reported as 0.5 µM.

`CC1CC(NC(=O)c2ccc(Oc3cccc(-c4ccnnc4)c3C#N)c(Cl)c2)CC(C)N1` (stereo unspecified) showed an IC50 [1] of 2.1 µM and an IC50 [2] of 10 µM.

Compound `CC1(C)CC(OC(=O)c2ccc(Oc3cccc(-c4ccnnc4)c3C#N)c(Cl)c2)CC(C)(C)N1` has an IC50 [1] of 0.172 µM, an IC50 [2] of 2.5 µM and a Papp A→B [3] of 20.4 ×10⁻⁶ cm/s. For the same compound, the Papp B→A [4] was 47.7 ×10⁻⁶ cm/s and the efflux ratio [5] was 2.3.

Compound `CC1(C)CC(NC(=O)c2ccc(Oc3ccccc3)cc2)CC(C)(C)N1` has an IC50 [1] of 51 µM.

Work on `CC1(C)CC(NC(=O)c2ccc(Oc3ccccc3C#N)c(Cl)c2)C(F)(F)C(C)(C)N1` (stereo unspecified) yielded an IC50 [1] greater than 80 µM and an IC50 [2] greater than 80 µM.

In the case of `CC1(C)CC(NC(=O)c2cc(F)c(Oc3ccccc3C#N)c(Br)c2)CC(C)(C)N1`, the IC50 [1] is reported as 1 µM.

`CC1(C)CC(NC(=O)c2ccc(Oc3ccccc3C#N)c(Cl)c2)CC(C)(C)N1CCO` showed an IC50 [1] of 4.9 µM and an IC50 [2] of 62 µM.

`CC1(C)CC(NC(=O)c2ccc(Oc3cccc(-c4ccncc4)c3C#N)c(Cl)c2)CC(C)(C)N1` showed an IC50 [1] of 0.081 µM and an IC50 [2] of 0.56 µM.

Work on `CC1(C)CC(NC(=O)c2ccc(COc3ccccc3)cc2)CC(C)(C)N1` yielded an IC50 [1] of 48 µM.

Compound `CC1(C)CC(NC(=O)c2ccc(C(O)c3ccccc3)cc2)CC(C)(C)N1` (stereo unspecified) has an IC50 [1] greater than 80 µM.

Work on `CC1(C)CC(NC(=O)c2ccc(Oc3ccccc3C#N)c(F)c2)CC(C)(C)N1` yielded an IC50 [1] of 1 µM.

`CC1(C)CC(NC(=O)c2ccc(Oc3ccccc3C#N)cc2Cl)CC(C)(C)N1` showed an IC50 [1] of 37 µM.

`CC1(C)CC(NC(=O)c2ccc(Oc3ccccc3Cl)cc2)CC(C)(C)N1` showed an IC50 [1] of 29 µM.

In the case of `CC1(C)CC(NC(=O)c2ccc(Oc3ccccc3C#N)cc2F)CC(C)(C)N1`, the IC50 [1] is reported as 15 µM.

With `Cc1cc(C(=O)NC2CC(C)(C)NC(C)(C)C2)ccc1Oc1ccccc1C#N` the IC50 [1] was 0.92 µM.

Work on `CC1(C)CC(NC(=O)c2ccc(Oc3ccccc3C#N)c3ccccc23)CC(C)(C)N1` yielded an IC50 [1] of 0.84 µM.

Work on `CC1(C)CC(NC(=O)c2ccc(Sc3ccccc3)cc2)CC(C)(C)N1` yielded an IC50 [1] of 33 µM.

With `CC1(C)CC(NC(=O)c2ccc(Oc3cccc(-c4ccnnc4)c3C#N)c(Cl)c2)CC(C)(C)N1` the Papp A→B [3] was 0.19 ×10⁻⁶ cm/s, the Papp B→A [4] was 3.29 ×10⁻⁶ cm/s and the Activity [6] was 7 µM. For the same compound, the GI50 [7] was 70 µM, the GI50 [8] was 24.8 µM and the GI50 [9] was 23 µM. For the same compound, the GI50 [10] was 13.2 µM and the GI50 [11] was 9.1 µM.

`Cc1ccc(Oc2ccc(C(=O)NC3CC(C)(C)NC(C)(C)C3)cc2)cc1` gave an IC50 [1] greater than 80 µM.

`Cc1cccc(Oc2ccc(C(=O)NC3CC(C)(C)NC(C)(C)C3)cc2)c1` gave an IC50 [1] of 61 µM.

Work on `CC(c1ccccc1)c1ccc(C(=O)NC2CC(C)(C)NC(C)(C)C2)cc1` (stereo unspecified) yielded an IC50 [1] greater than 80 µM.

For `CC1(C)CC(NC(=O)c2ccc(Oc3ccccc3C#N)c(Cl)c2)CC(C)(C)N1`, the IC50 [1] was 0.45 µM.

In the case of `CC1(C)CC(NC(=O)c2ccc(C(=O)c3ccccc3)cc2)CC(C)(C)N1`, the IC50 [1] is reported as 57 µM.

Work on `CC1(C)CC(NC(=O)c2ccc(Cc3ccccc3)cc2)CC(C)(C)N1` yielded an IC50 [1] greater than 80 µM.

For `CC1(C)CC(NC(=O)c2ccc(Oc3cccc(-c4ccncn4)c3C#N)c(Cl)c2)CC(C)(C)N1`, the IC50 [1] was 0.024 µM and the IC50 [2] was 0.13 µM.

In the case of `CC1(C)CC(NC(=O)c2ccc(OCc3ccccc3)cc2)CC(C)(C)N1`, the IC50 [1] is reported as greater than 80 µM.

`CC1(C)CC(NC(=O)c2ccc(Oc3ccccc3C#N)cc2)CC(C)(C)N1` showed an IC50 [1] of 3.4 µM.

For `CC1(C)CC(NC(=O)c2ccc(Oc3ccccc3OCc3ccccc3)cc2)CC(C)(C)N1`, the IC50 [1] was 3.6 µM.

Work on `COc1cc(Oc2ccccc2C#N)ccc1C(=O)NC1CC(C)(C)NC(C)(C)C1` yielded an IC50 [1] greater than 80 µM.

With `CN(c1ccccc1)c1ccc(C(=O)NC2CC(C)(C)NC(C)(C)C2)cc1` the IC50 [1] was greater than 80 µM.

Compound `CC1(C)CC(NC(=O)c2ccc(Oc3ccccc3C#N)c(C#N)c2)CC(C)(C)N1` has an IC50 [1] of 0.93 µM.
